# Test results published in the NIST ThermoML archive (doi:10.1016/j.jct.2013.03.026).
# Numbers after ± are expanded uncertainties.
# Experiments:
# [1] = DTA
# [2] = Molar enthalpy of transition or fusion; details: DSC
# [3] = molar heat capacity at constant pressure; details: 298.15 K, 101.33 kPa, Drop calorimetry
Triple point temperature ([1]; Crystal),Molar enthalpy of transition or fusion ([2]; Crystal),molar heat capacity at constant pressure ([3]; Crystal),Compound,other results
390.6 ± 0.5 K,6.5 ± 0.167 kcal/mol,359.1 ± 8.3 J/K/mol,c1ccc(-c2ccccc2-c2ccccc2-c2ccccc2)cc1 [o-quaterphenyl],
594.4 ± 0.6 K,12.8 ± 0.359 kcal/mol,,"c1ccc(-c2ccc(-c3ccc(-c4ccccc4)cc3)cc2)cc1 [1,1':4',1'':4'',1'''-quaterphenyl]",
360 ± 0.4 K,6.62 ± 0.191 kcal/mol,359.5 ± 8.4 J/K/mol,c1ccc(-c2cccc(-c3cccc(-c4ccccc4)c3)c2)cc1 [metaquaterphenyl],
387.1 ± 0.4 K,7.46 ± 0.191 kcal/mol,443.7 ± 10 J/K/mol,"c1ccc(-c2cccc(-c3cccc(-c4cccc(-c5ccccc5)c4)c3)c2)cc1 [1,1':3',1'':3'',1'':3'',1''''-quinquephenyl]",
428.8 ± 0.5 K,7.74 ± 0.191 kcal/mol,444.3 ± 10 J/K/mol,c1ccc(-c2ccccc2-c2ccccc2-c2ccccc2-c2ccccc2)cc1 [o-quinquephenyl],
,,,"c1ccc(-c2ccc(-c3ccc(-c4ccc(-c5ccccc5)cc4)cc3)cc2)cc1 [1,1':4',1'':4'',1''':4''',1''''-quinquephenyl]",Triple point temperature ([1]; Crystal 1): 663.4 ± 3.9 K; Triple point temperature ([1]; Crystal 2): 642.2 ± 3.9 K; Triple point temperature ([1]; Nematic liquid crystal): 696 ± 3.9 K; Molar enthalpy of transition or fusion ([2]; Crystal 1): 11.7 ± 0.956 kcal/mol; Molar enthalpy of transition or fusion ([2]; Crystal 2): 0.12 ± 0.0717 kcal/mol; Molar enthalpy of transition or fusion ([2]; Nematic liquid crystal): 0.382 ± 0.0956 kcal/mol; molar heat capacity at constant pressure ([3]; Crystal 2): 455.5 ± 11 J/K/mol

Compound,Triple point temperature ([1]; Crystal),Molar enthalpy of transition or fusion ([2]; Crystal),molar heat capacity at constant pressure ([3]; Crystal),other results
c1ccc(-c2cccc(-c3ccccc3)c2)cc1 [m-terphenyl],361.8 ± 0.7 K,6.09 ± 0.167 kcal/mol,,
c1ccc(-c2ccccc2-c2ccccc2)cc1 [o-terphenyl],329.4 ± 0.4 K,4.06 ± 0.12 kcal/mol,,
c1ccc(-c2ccc(-c3ccccc3)cc2)cc1 [p-terphenyl],490.9 ± 0.6 K,7.86 ± 0.215 kcal/mol,,
